Experiments:
[1] = tested on: OPCs; conditions: cells cultured 72 hrs with 1 μM staurosporine; background 10,000 cpm; Ebner 2000; cited from earlier work
[2] = tested on: oligodendrocyte progenitors; assay: Quantitative 3H-thymidine incorporation proliferation assay; type: cell-based; conditions: recombinant growth factor; background 500-1000 cpm without growth factor
Experimental: Proliferation assay: The ability of oligodendrocyte progenitors to generate a mitogenic response to specific ligands is measured in a quantitative ^3H-thymidine incorporation assay. Cells are exposed to growth factors, in a dose range that brackets the maximal response to FGF and PDGF, in order to determine the half-maximal response. Responses range from a background of 500-1000 cpm (no growth factor) to 10,000 cpm (recombinant PDGF-AA), and the assay is sufficiently sensitive to accurately detect partial mitogenic responses. All cell proliferation assays are optionally performed at least three independent times. For qualitative assays, cells are exposed to mitogens with 50 μM BrdU (Sigma) present for the final 4 hrs, and DNA synthesis is monitored by dual immunofluorescence for BrdU (Osterhout et al., J. Neurosci. 17:9122-9132 (1997)) and a second lineage marker.
Proliferation assays are performed on cells that have been removed from mitogens for 24 hrs prior to exposure to recombinant growth factors to reduce background levels of DNA synthesis. […] Nucleic acid is recovered using an automatic harvester (Brandel) and the incorporated radioactivity measured by scintillation counting. […]

[3] = tested on: OPCs; conditions: background migration 1,000 cells/mm^2; Armstrong et al. 1990; cited from earlier work

Row | Compound | 32P incorporation into 3'-ends of DNA [1] | mitogenic response, 3H-thymidine incorporation [2] | chemotaxis, cells migrated [3]
1 | CN[C@@H]1C[C@H]2O[C@@](C)([C@@H]1OC)n1c3ccccc3c3c4c(c5c6ccccc6n2c5c31)C(=O)NC4 [staurosporine] | 100,000 cpm |  | 
2 | PDGF-AA: recombinant (human) polypeptide growth factor, oligodendrocyte progenitor cell mitogen |  | 10,000 cpm | 4,000 cells/mm^2
